The source of these data is patent publication US4407806A, “Fungicidal, herbicidal and plant growth regulating pyridyl-containing ethers” (Chevron Research Company, priority 1981, dated 1983).

The structures appear in SMILES notation.

Holding throughout (assay type): in vivo
In experiment [1] the test system is grape downy mildew organism Plasmopara viticola. In words: Grape Downy Mildew control (detached grape leaves). As to conditions: vs untreated check, read-out: Fungicidal Activity Control %, Grape D.M.
Experiment [2] has as its system Tomato Late Blight organism Phytophthora infestans. In words: whole plant or invertebrate. Conditions: 168 h, read-out: Fungicidal Activity Control %, Tomato L.B.
Experiment [3] relates to celery late blight organism Septoria apii. Description: whole plant or invertebrate. As to conditions: 336 h, read-out: Fungicidal Activity Control %, Celery L.B.
For experiment [4], the system named is Bean Powdery Mildew organism Erisiphe polygoni. In words: Bean Powdery Mildew control. As to conditions: 240 h, 10 days, vs untreated check, read-out: Fungicidal Activity Control %, Bean P.M. The procedure:
The compounds of the invention were tested for the control of the Bean Powdery Mildew organism […] polygoni. Seedling bean plants were sprayed with a 250 ppm solution of the test compound in acetone, water and a nonionic emulsifier. The sprayed plants were then inoculated 1 day later with organism. […] The percent disease control provided by a given test compound was based on the percent disease reduction relative to the untreated check plants.

Experiment [5] relates to Crabgrass (Digitaria sanguinalis). In words: Pre-emergent herbicidal test. As to conditions: 504 h, pre-emergence, 33 micrograms/cm^2, 3 weeks, 0-to-100 scale, read-out: Herbicidal Activity Pre-Emergence % Control, Crab Grass. The procedure: (§1) An acetone solution of the test compound was prepared by mixing 750 mg of the compound, 220 mg of a nonionic surfactant and 25 ml of acetone. This solution was added to approximately 125 ml of water containing 156 mg of surfactant.
(§2) Seeds of the test vegetation were planted in a pot of […] and the test solution was sprayed uniformly onto the soil surface at a dose of 33 micrograms/cm^2. The pot was watered and placed in a greenhouse. […] At the end of this period, the herbicidal effectiveness of the compound was rated based on the physiological observations. A 0-to-100 scale was used, 0 representing no phytotoxicity, 100 representing complete kill.

Experiment [6] has as its system Lambsquarter (Chenopodium album). In words: Pre-emergent herbicidal test. As to conditions: 504 h, pre-emergence, 33 micrograms/cm^2, 3 weeks, 0-to-100 scale, read-out: Herbicidal Activity Pre-Emergence % Control, L'Qtr. The procedure: as §1, §2
In experiment [7] the test system is Mustard (Brassica arvensis). In words: Pre-emergent herbicidal test. Conditions: 504 h, pre-emergence, 33 micrograms/cm^2, 3 weeks, 0-to-100 scale. How it is done:
as §1, §2

The test system of experiment [8] is Pigweed (Amaranthus retraflexus). In words: Pre-emergent herbicidal test. As to conditions: 504 h, pre-emergence, 33 micrograms/cm^2, 3 weeks, 0-to-100 scale. How it is done: as §1, §2
Experiment [9] has as its system Soybean. In words: Pre-emergent herbicidal test. As to conditions: Glycine max, 504 h; pre-emergence; 33 micrograms/cm^2; 3 weeks; 0-to-100 scale; read-out: Herbicidal Activity Pre-Emergence % Control, Soybean. How it is done: as §1, §2
The subject of experiment [10] is Watergrass (Echinochloa crusgalli). In words: Pre-emergent herbicidal test. As to conditions: Echinochloa crus-galli, 504 h; pre-emergence; 33 micrograms/cm^2; 3 weeks; 0-to-100 scale; read-out: Herbicidal Activity Pre-Emergence % Control, Water Grass. The procedure: as §1, §2
The test system of experiment [11] is Wild Oats (Avena fatura). Description: Pre-emergent herbicidal test. As to conditions: 504 h, pre-emergence, 33 micrograms/cm^2, 3 weeks, 0-to-100 scale. The procedure:
as §1, §2

Experiment [12] has as its system Crabgrass (Digitaria sanguinalis). In words: Post-emergent herbicidal test. Conditions: 504 h, post-emergence, 33 micrograms/cm^2, 3 weeks, 0-to-100 scale, read-out: Herbicidal Activity Post-Emergence % Control, Crab Grass.
Experiment [13] deals with Lambsquarter (Chenopodium album). Description: Post-emergent herbicidal test. As to conditions: 504 h, post-emergence, 33 micrograms/cm^2, 3 weeks, 0-to-100 scale, read-out: Herbicidal Activity Post-Emergence % Control, L'Qtr.
The test system of experiment [14] is Mustard (Brassica arvensis). Description: Post-emergent herbicidal test. Conditions: 504 h, post-emergence, 33 micrograms/cm^2, 3 weeks, 0-to-100 scale.
Experiment [15] relates to Pigweed (Amaranthus retraflexus). In words: Post-emergent herbicidal test. Conditions: 504 h, post-emergence, 33 micrograms/cm^2, 3 weeks, 0-to-100 scale.
For experiment [16], the system named is Soybean. In words: Post-emergent herbicidal test. As to conditions: Glycine max, 504 h, post-emergence, 33 micrograms/cm^2, 3 weeks, 0-to-100 scale, read-out: Herbicidal Activity Post-Emergence % Control, Soybean.
The test system of experiment [17] is Watergrass (Echinochloa crusgalli). In words: Post-emergent herbicidal test. As to conditions: Echinochloa crus-galli, 504 h, post-emergence, 33 micrograms/cm^2, 3 weeks, 0-to-100 scale, read-out: Herbicidal Activity Post-Emergence % Control, Water Grass.
The subject of experiment [18] is Wild Oats (Avena fatura). Description: Post-emergent herbicidal test. Conditions: 504 h, post-emergence, 33 micrograms/cm^2, 3 weeks, 0-to-100 scale.
The next experiment relates to Idaho pinto bean plants. In words: Axillary Bud Growth Inhibition Of Pinto Bean Plants. Conditions: 288 h; 625-ppm; twelve days after treatment; vs untreated check; read-out: Bud Inhib (percent inhibition of axillary bud growth). The procedure: Compounds of this invention were tested to determine their plant-growth-retarding effects on axillary bud growth of pinto beans.
Idaho pinto bean plants (13-16 days old) having monofoliate leaves fully developed and first trifoliates beginning to unfold were used. All growth 5 mm above the monofoliate leaf node was removed with forceps 1 to 4 hours prior to treatment with the test compounds. Four plants were used for each test compound.
A 625-ppm solution of the test compound in a 2% aqueous acetone solution containing a small amount of a nonionic surfactant was sprayed onto the pinto bean plants until runoff. After drying, the treated plants were transferred to a greenhouse maintained at 20°-23° C. and watered at regular intervals. Twelve days after treatment, the bud growth at the axil of the monofoliate leaf was determined and expressed as percent inhibition of axillary bud growth as compared to untreated check plants.

The subject of another experiment is Cotton plants. Description: Cotton Regrowth. As to conditions: Gossypium hirsutum, 13 to 18 days, 100% is total inhibition, read-out: Regrowth (percent inhibition of cotton regrowth). The procedure: Compounds of this invention were tested to determine their plant-growth regulating effects on cotton leaf regrowth.
Cotton plants, 4 to 5 weeks old, containing 4 true leaves above the cotyledonary leaves are employed. Growth beyond the second true leaf was removed. Within 24 hours the plants are sprayed with a 2000 ppm solution of the test compound. After spraying, the plants are transferred to a greenhouse maintained at 85° F. (±5° F.) and incubated there for from 13 to 18 days. The plants during this period are sub-irrigated in 1/4" of water.
After this period, regrowth is determined as a percent inhibition of auxiliary bud regrowth--100% is total inhibition while 0% is no inhibition.

Experiment [19] relates to tomato Early Blight organism, Alternaria solani conidia. In words: Tomato Early Blight control. As to conditions: 288 h, about 12 days in greenhouse, vs untreated check, read-out: Fungicidal Activity Control %, Tomato E.B. How it is done:
Compounds of the invention were tested for the control of the tomato Early Blight organism, Alternaria solani conidia. Tomato (variety Bonny Best) seedlings of 6 to 7 weeks old were used. The tomato plants were sprayed with a 250 ppm solution of the test compound in an acetone-and-water solution containing a small amount of a nonionic emulsifier. The sprayed plants were inoculated one day later with the organism, placed in the environmental chamber and incubated at […] and 100% relative humidity for 24 hours. Following the incubation, the plants were maintained in a greenhouse for about 12 days. Percent diseases control was based on the percent disease development on untreated check plants.

Turning to `Clc1ccc(COC(c2cccnc2)c2ccc(Cl)cc2Cl)c(Cl)c1` (stereo not shown) [Compound 1, 3-pyridyl-2,4-dichlorophenylcarbinol 2,4-dichlorobenzylether], the pest or weed control at 250 ppm in experiment [1] turned out to be 0%; in experiment [2], 4%; in experiment [3], 88%; in experiment [4], 100%. Also, the pest or weed control at 33 µg/cm2 (in [5]; in experiment [6]; in experiment [7]; in experiment [8]; in experiment [10]; with Wild Oats (Avena fatura) [11]) was 0% in each case. The plant injury at 33 µg/cm2 with Soybean [9] is 0%. Besides, the pest or weed control at 5000 ppm, 33 µg/cm2 in experiment [12] stood at 0%; in [13], 20%; in experiment [14], 30%; in [15], 30%; in [17], 0%; in the experiment with Wild Oats (Avena fatura) [18] it was 0%. Also, the plant injury at 5000 ppm, 33 µg/cm2 with Soybean [16] came out at 20%. Further, the pest or weed control at 625 µg/mL with Idaho pinto bean plants amounted to 85%. The inhibition (usually the percentage by which the read-out fell short of the control) at 2000 ppm in the experiment on Cotton plants was 55%.

In the case of `OC(c1cccnc1)c1ccc(Cl)cc1Cl` (stereo not shown) [Compound 2, 3-pyridyl-2,4-dichlorophenylcarbinol], the pest or weed control at 250 ppm in experiment [1] came to 25%; in [2] it was 0%; in [3], 31%; in experiment [4] it was 100%. In addition, the pest or weed control at 33 µg/cm2 (in experiment [5]; in experiment [6]; in [7]; in experiment [8]; in [10]; in the experiment on Wild Oats (Avena fatura) [11]) was 0% in each case. The plant injury at 33 µg/cm2 with Soybean [9] worked out at 0%. In addition, the pest or weed control at 5000 ppm, 33 µg/cm2 (in [12]; in experiment [13]; in [14]; in experiment [15]; in experiment [17]; in the experiment on Wild Oats (Avena fatura) [18]) was 0% throughout. In addition, the plant injury at 5000 ppm, 33 µg/cm2 in the experiment with Soybean [16] was found to be 0%. In addition, the pest or weed control at 625 µg/mL in the experiment on Idaho pinto bean plants was determined as 0%. Moreover, in the experiment with Cotton plants, the inhibition at 2000 ppm came out at 0%.

For `C=CCOC(c1cccnc1)c1ccc(Cl)cc1Cl` (stereo not shown) [Compound 3, 3-pyridyl-2,4-dichlorophenylcarbinol allylether], the pest or weed control at 250 ppm in [1] came out at 15%; in [2], 0%; in experiment [3], 48%; in [19] it was 4%; in experiment [4] it was 100%. Also, the pest or weed control at 33 µg/cm2 in experiment [5] amounted to 90%; in experiment [6] it was 98%; in experiment [7], 45%; in [8], 85%; in experiment [10], 73%; in the experiment on Wild Oats (Avena fatura) [11], 0%. In addition, the plant injury at 33 µg/cm2 in the experiment on Soybean [9] amounted to 0%. For the same molecule, the pest or weed control at 5000 ppm, 33 µg/cm2 in experiment [12] is 0%; in experiment [13], 60%; in experiment [14], 25%; in experiment [15], 50%; in experiment [17], 0%; in the experiment on Wild Oats (Avena fatura) [18], 0%. The plant injury at 5000 ppm, 33 µg/cm2 with Soybean [16] was 33%. Further, the pest or weed control at 625 µg/mL with Idaho pinto bean plants was found to be 25%. Besides, the inhibition at 2000 ppm in the experiment on Cotton plants was 0%.

As to `C=C(Cl)COC(c1cccnc1)c1ccc(Cl)cc1Cl` (stereo not shown) [Compound 4, 3-pyridyl-2,4-dichlorophenylcarbinol 2-chloroallylether], the pest or weed control at 250 ppm in experiment [1] came out at 27%; in experiment [2] it was 0%; in [3], 83%; in experiment [19], 73%; in experiment [4] it was 100%. The pest or weed control at 33 µg/cm2 in experiment [5] came to 70%; in experiment [6] it was 73%; in experiment [7], 30%; in [8], 35%; in experiment [10], 83%; in the experiment on Wild Oats (Avena fatura) [11] it was 33%. In addition, in the experiment with Soybean [9], the plant injury at 33 µg/cm2 turned out to be 0%. For the same molecule, the pest or weed control at 5000 ppm, 33 µg/cm2 in [12] worked out at 0%; in [13], 55%; in experiment [14], 58%; in [15], 45%; in experiment [17], 0%; in the experiment on Wild Oats (Avena fatura) [18], 0%. Further, the plant injury at 5000 ppm, 33 µg/cm2 in the experiment with Soybean [16] was found to be 28%. In addition, the pest or weed control at 625 µg/mL in the experiment on Idaho pinto bean plants turned out to be 30%. In addition, the inhibition at 2000 ppm in the experiment on Cotton plants was 0%.

For the molecule `c1ccc(-c2ccc(COC(c3ccccc3)c3cccnc3)cc2)cc1` (stereo not shown) [Compound 11, 3-pyridylphenylcarbinol 4-phenylbenzylether], the pest or weed control at 250 ppm in experiment [1] was 13%; in [2], 0%; in experiment [3], 47%; in experiment [19] it was 5%; in experiment [4], 100%. Moreover, the pest or weed control at 625 µg/mL in the experiment on Idaho pinto bean plants is 0%.
